# Laboratory results reported in patent US20240390408A1, “METHOD OF TREATING HEPATITIS C VIRUS IN PATIENTS” (Altesa BioSciences, Inc., priority 2023, published 2024).
# Like-named read-outs stand apart in the source and are kept apart here.
# What was measured:
# [1] = Tissue concentrations of Formula I and its metabolites in Göttingen pigs after a single oral or intravenous dose (LC-MS/MS); format: in vivo; settings: for concentration at 2 h / concentration at 3 h: both sexes, Göttingen, pig (minipig), in vivo; for concentration at 2 h: 25 mg/kg; for concentration at 3 h: 125 mg/kg
# Procedure: Tissue samples were collected at 3, 12, and 24 hours post-dose (hpd) for the oral dose and 2 and 12 hpd for the intravenous dose, snap-frozen in liquid nitrogen, and stored at −60 to −90° C. until shipment on dry ice for analysis by LC-MS/MS.
# Animals were weighed the day prior to dosing to determine the dosing volume.
# The compound of Formula I was dissolved in a PEG 400/DI water (60%/40% v/v) vehicle for oral dosing. For IV dosing the compound of Formula I was dissolved in a PEG 400/Cremophor RH 40/Saline (40%/10%/50% v/v) vehicle and passed through a sterile filter. […] Animals were euthanized by euthanasia solution administration under sedation, if necessary (e.g., acepromazine and or/Telazol®), followed by a Testing Facility SOP approved method to ensure death (e.g., exsanguination). Tissues were collected from two animals per sex per timepoint. Tissue samples, including the brain, heart, kidney, liver, lung, spleen, pancreas, bone marrow, duodenum, jejunum, and colon, were collected in duplicate (approximately 50±20 mg each) and placed into two separate reinforced homogenization tubes per organ (one tissue sample per tube). The exact weight (in milligrams) of each sample was recorded. Tissues samples were flash frozen in liquid nitrogen and stored at −60 to −90° C. until shipment on dry ice for analysis by LC-MS/MS.
# Mobile phase A consisted of 50 mM ammonium bicarbonate buffer in HPLC grade water pH 9.8 and mobile phase B consisted of pure acetonitrile. […] Mass spectrometry analysis was performed on a QTrap 7500 Mass Spectrometer (Sciex, Framingham, MA, USA) using negative mode electrospray ionization (ESI) in multiple reaction monitoring (MRM) mode. Data analysis was performed using SCIEX OS Software (Sciex, Framingham, MA, USA).
# Tissue samples were collected at 3, 12, and 24 hours post-dose for the oral dose and 2 and 12 hour post-dose for the intravenous dose.
# [2] = Stability in minipig plasma; format: in vitro ADME
# [3] = liver, single oral dose of Formula I 125 mg/kg, 12 hpd
# [4] = liver, single oral dose of Formula I 125 mg/kg, 24 hpd
compound,measurement,setting,value
CC(C)OC(=O)[C@H](C)N[P@](=O)(OC[C@H]1O[C@@H](n2ccc(=O)[nH]c2=S)C(C)(O)C1O)Oc1ccccc1 (some centres unmarked) [Formula I],Quantity detectable in organs,"[1]; all organs, 2-3 hours after IV or PO dosing",~0.1 µM
same,concentration at 2 h,"[1]; kidney, single intravenous bolus of Formula I 25 mg/kg, 2 hpd, read-out: Tissue concentration, kidney",85 ± 93.1 ng/g
same,concentration at 2 h,"[1]; liver, single intravenous bolus of Formula I 25 mg/kg, 2 hpd, read-out: Tissue concentration, liver",7.03 ± 8.24 ng/g
same,concentration at 2 h,"[1]; lung, single intravenous bolus of Formula I 25 mg/kg, 2 hpd, read-out: Tissue concentration, lung",51.8 ± 29.1 ng/g
same,concentration at 2 h,"[1]; spleen, single intravenous bolus of Formula I 25 mg/kg, 2 hpd, read-out: Tissue concentration, spleen",63.9 ± 29.8 ng/g
same,concentration at 3 h,"[1]; brain, single oral dose of Formula I 125 mg/kg, 3 hpd, read-out: Tissue concentration, brain",31.5 ± 63 ng/g
same,concentration at 3 h,"[1]; heart, single oral dose of Formula I 125 mg/kg, 3 hpd, read-out: Tissue concentration, heart",117 ± 105 ng/g
same,concentration at 3 h,"[1]; liver, single oral dose of Formula I 125 mg/kg, 3 hpd, read-out: Tissue concentration in Göttingen pig liver (Table 7)",496 ± 663 nM
same,concentration at 3 h,"[1]; liver, single oral dose of Formula I 125 mg/kg, 3 hpd, read-out: Tissue concentration, liver",270 ± 361 ng/g
same,concentration at 3 h,"[1]; lung, single oral dose of Formula I 125 mg/kg, 3 hpd, read-out: Tissue concentration, lung",38.6 ± 46.5 ng/g
same,concentration at 3 h,"[1]; spleen, single oral dose of Formula I 125 mg/kg, 3 hpd, read-out: Tissue concentration, spleen",88.4 ± 60.3 ng/g
same,"Tissue concentration, brain","[1]; brain, single intravenous bolus of Formula I 25 mg/kg, 2 hpd",BQL
same,"Tissue concentration, brain","[1]; brain, single intravenous bolus of Formula I 25 mg/kg, 12 hpd",BQL
same,"Tissue concentration, brain","[1]; brain, single oral dose of Formula I 125 mg/kg, 3 hpd",31.5 ± 63.0 ng/g
same,"Tissue concentration, brain","[1]; brain, single oral dose of Formula I 125 mg/kg, 12 hpd",BQL
same,"Tissue concentration, brain","[1]; brain, single oral dose of Formula I 125 mg/kg, 24 hpd",BQL
same,"Tissue concentration, heart","[1]; heart, single intravenous bolus of Formula I 25 mg/kg, 2 hpd",112 ± 69.0 ng/g
same,"Tissue concentration, heart","[1]; heart, single intravenous bolus of Formula I 25 mg/kg, 12 hpd",2.95 ± 5.90 ng/g
same,"Tissue concentration, heart","[1]; heart, single oral dose of Formula I 125 mg/kg, 12 hpd",BQL
same,"Tissue concentration, heart","[1]; heart, single oral dose of Formula I 125 mg/kg, 24 hpd",BQL
same,"Tissue concentration, kidney","[1]; kidney, single intravenous bolus of Formula I 25 mg/kg, 12 hpd",BQL
same,"Tissue concentration, kidney","[1]; kidney, single oral dose of Formula I 125 mg/kg, 3 hpd",BQL
same,"Tissue concentration, kidney","[1]; kidney, single oral dose of Formula I 125 mg/kg, 12 hpd",BQL
same,"Tissue concentration, kidney","[1]; kidney, single oral dose of Formula I 125 mg/kg, 24 hpd",BQL
same,"Tissue concentration, liver","[1]; liver, single intravenous bolus of Formula I 25 mg/kg, 2 hpd",7.03 ± 8.24 ng/g
same,"Tissue concentration, liver","[1]; liver, single intravenous bolus of Formula I 25 mg/kg, 12 hpd",BQL
same,"Tissue concentration, liver","[1]; liver, single oral dose of Formula I 125 mg/kg, 3 hpd",270 ± 361 ng/g
same,Tissue concentration in Göttingen pig liver (Table 7),[1]; [3],BQL
same,"Tissue concentration, liver",[1]; [3],BQL
same,Tissue concentration in Göttingen pig liver (Table 7),[1]; [4],BQL
same,"Tissue concentration, liver",[1]; [4],BQL
same,"Tissue concentration, lung","[1]; lung, single intravenous bolus of Formula I 25 mg/kg, 12 hpd",BQL
same,"Tissue concentration, lung","[1]; lung, single oral dose of Formula I 125 mg/kg, 12 hpd",BQL
same,"Tissue concentration, lung","[1]; lung, single oral dose of Formula I 125 mg/kg, 24 hpd",BQL
same,"Tissue concentration, spleen","[1]; spleen, single intravenous bolus of Formula I 25 mg/kg, 12 hpd",BQL
same,"Tissue concentration, spleen","[1]; spleen, single oral dose of Formula I 125 mg/kg, 12 hpd",BQL
same,"Tissue concentration, spleen","[1]; spleen, single oral dose of Formula I 125 mg/kg, 24 hpd",BQL
same,Stability in minipig plasma,[2],good stability
